Data from ChEMBL document CHEMBL1201862, “PubChem BioAssay data set” (2004).
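Cells were grown in 96-well plates and exposed to each compound for 48 hours at five concentrations; endpoints were interpolated linearly between bracketing concentrations, or set to the highest concentration if not reached. Here, GI50 denotes the concentration required for 50% inhibition of growth.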 The source made the active and inactive calls. Cut-off read from the data, not from the text of the source: active = GI50 up to about 1.1 µM and inactive = higher.

Legend:
Experiment in all cases: inhibition of tumour cell growth, NCI panel, 48 h
M14 = tested on: M14
MOLT-4 = tested on: MOLT-4
786-0 = tested on: 786-0
SF-268 = tested on: SF-268
CCRF-CEM = tested on: CCRF-CEM
SK-OV-3 = tested on: SK-OV-3
SNB-75 = tested on: SNB-75
OVCAR-4 = tested on: OVCAR-4
EKVX = tested on: EKVX
HOP-92 = tested on: HOP-92
OVCAR-5 = tested on: OVCAR-5
NCI/ADR-RES = tested on: NCI/ADR-RES
NCI-H460 = tested on: NCI-H460
Hs-578T = tested on: Hs-578T
U-251 = tested on: U-251
RPMI-8226 = tested on: RPMI-8226
TK-10 = tested on: TK-10
LOX IMVI = tested on: LOX IMVI
OVCAR-3 = tested on: OVCAR-3
T47D = tested on: T47D

SMILES	GI50 (M14)	GI50 (MOLT-4)	GI50 (786-0)	GI50 (SF-268)	GI50 (CCRF-CEM)	GI50 (SK-OV-3)	GI50 (SNB-75)	GI50 (OVCAR-4)	GI50 (EKVX)	GI50 (HOP-92)	GI50 (OVCAR-5)	GI50 (NCI/ADR-RES)	GI50 (NCI-H460)	GI50 (Hs-578T)	GI50 (U-251)	GI50 (RPMI-8226)	GI50 (TK-10)	GI50 (LOX IMVI)	GI50 (OVCAR-3)	GI50 (T47D)
O=P1(C(O)/C=C/c2ccccc2)N(Cc2ccccc2)[C@@H]2CCCC[C@H]2N1Cc1ccccc1 (stereo partly specified)	4.39 µM (inactive)	2.93 µM (inactive)	5.94 µM (inactive)	4.05 µM (inactive)	5.19 µM (inactive)	24 µM (inactive)	12 µM (inactive)	5.38 µM (inactive)	6.7 µM (inactive)	2.7 µM (inactive)	10.6 µM (inactive)	9.53 µM (inactive)	3.55 µM (inactive)	3.65 µM (inactive)	4.21 µM (inactive)	2.14 µM (inactive)	7.23 µM (inactive)	3.8 µM (inactive)	6.64 µM (inactive)	4.76 µM (inactive)
CCOC(=O)C1=C(c2ccccc2)N(C)c2ccccc2S1	34.5 µM (inactive)	32.4 µM (inactive)	31.8 µM (inactive)	29.4 µM (inactive)	31 µM (inactive)	92.5 µM (inactive)	38.6 µM (inactive)	30.1 µM (inactive)	32 µM (inactive)	44.5 µM (inactive)	35.1 µM (inactive)	22.3 µM (inactive)	24.7 µM (inactive)	23.3 µM (inactive)	19.8 µM (inactive)	17 µM (inactive)	46.5 µM (inactive)	16.7 µM (inactive)	36 µM (inactive)	18.1 µM (inactive)
CC(Br)C(=O)NC(CO)C(=O)O (stereo unspecified)	> 100 µM (inactive)	> 100 µM (inactive)	> 100 µM (inactive)	> 100 µM (inactive)	> 100 µM (inactive)	> 100 µM (inactive)	> 100 µM (inactive)	> 100 µM (inactive)	> 100 µM (inactive)	> 100 µM (inactive)	> 100 µM (inactive)	> 100 µM (inactive)	> 100 µM (inactive)	> 100 µM (inactive)	> 100 µM (inactive)	> 100 µM (inactive)	> 100 µM (inactive)	> 100 µM (inactive)	> 100 µM (inactive)	> 100 µM (inactive)
CC(C)(Br)C(Br)CCC1(C2CO2)CO1 (stereo unspecified)	> 5 µM (inactive)	> 5 µM (inactive)	> 5 µM (inactive)	> 5 µM (inactive)	> 5 µM (inactive)	> 5 µM (inactive)	> 5 µM (inactive)	> 5 µM (inactive)	> 5 µM (inactive)	> 5 µM (inactive)	–	> 5 µM (inactive)	–	> 5 µM (inactive)	> 5 µM (inactive)	> 5 µM (inactive)	–	–	> 5 µM (inactive)	> 5 µM (inactive)
CCOC(=O)/C=C(/C(=O)OCC)n1ccc(=O)n(CC(=O)OCC)c1=O	1.37 µM (inactive)	0.243 µM (active)	0.412 µM (active)	3.11 µM (inactive)	0.169 µM (active)	14.4 µM (inactive)	2.48 µM (inactive)	1.84 µM (inactive)	1.89 µM (inactive)	0.251 µM (active)	1.67 µM (inactive)	2.63 µM (inactive)	3.89 µM (inactive)	4.9 µM (inactive)	2.56 µM (inactive)	–	1.23 µM (inactive)	0.869 µM (active)	1.1 µM (active)	0.57 µM (active)
CC1/C(=N/O)CC(c2ccccc2)N(N=O)C1c1ccccc1 (stereo unspecified)	> 100 µM (inactive)	> 100 µM (inactive)	> 100 µM (inactive)	> 100 µM (inactive)	> 100 µM (inactive)	82.4 µM (inactive)	91.4 µM (inactive)	> 100 µM (inactive)	> 100 µM (inactive)	> 100 µM (inactive)	–	> 100 µM (inactive)	> 100 µM (inactive)	> 100 µM (inactive)	> 100 µM (inactive)	> 100 µM (inactive)	> 100 µM (inactive)	> 100 µM (inactive)	> 100 µM (inactive)	> 100 µM (inactive)
COc1cc(C2C(C#N)=C(N)OC3=C2CCS(=O)(=O)c2ccc(C)cc23)cc(OC)c1OC (stereo unspecified)	> 100 µM (inactive)	–	> 100 µM (inactive)	> 100 µM (inactive)	> 100 µM (inactive)	–	> 100 µM (inactive)	> 100 µM (inactive)	–	> 100 µM (inactive)	> 100 µM (inactive)	> 100 µM (inactive)	> 100 µM (inactive)	> 100 µM (inactive)	> 100 µM (inactive)	> 100 µM (inactive)	> 100 µM (inactive)	> 100 µM (inactive)	> 100 µM (inactive)	> 100 µM (inactive)
